This is an account of results in PubChem BioAssay (NCI).

The structures appear in SMILES notation. Where “and” joins values, the source holds several entries; their conditions need not be identical. Identical values can stand only once.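 These data come from cells grown in 96-well plates and exposed to compound for 48 hours at five concentrations. GI50 is the concentration that inhibits growth by half. TGI is the concentration that stops growth completely.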 A value given as a limit tells only on which side of the number the result lay.

Test systems include CCRF-CEM leukemia; SW-620 colon; IGROV1 ovarian; ACHN renal; CAKI-1 renal; TK-10 renal; KM12 colon.
Holding throughout (experiment): NCI tumour cell line growth inhibition, 48 h

Take `COc1ccc(C2C3=C(COC3=O)Oc3cc4c(cc32)OCO4)cc1` (stereo not given): the TGI in the assay on CCRF-CEM leukemia, in the assay on SW-620 colon, with IGROV1 ovarian, in the assay with ACHN renal, in the assay on CAKI-1 renal and with TK-10 renal was over 100 µM each time.

Take `O=C(C=Nc1ccccc1C(=O)[O-])c1cccs1.O=C(C=Nc1ccccc1C(=O)[O-])c1cccs1.[Zn+2]`: the TGI in the assay on KM12 colon is over 100 µM; in the assay on CCRF-CEM leukemia, 65.3 µM; in the assay with SW-620 colon it was over 100 µM; with IGROV1 ovarian, 76 µM; in the assay on ACHN renal, over 100 µM; with CAKI-1 renal it was over 100 µM. Besides, the TGI in the assay with TK-10 renal was over 100 µM.

With `CCCN1C(=O)CNC(=O)c2[nH]cnc21`, the TGI in the assay with KM12 colon, with CCRF-CEM leukemia, with SW-620 colon, in the assay on IGROV1 ovarian, in the assay with ACHN renal and with CAKI-1 renal was over 100 µM each time. The molecule also yielded a TGI in the assay with TK-10 renal of over 100 µM.

`O=C(Cc1ccccc1)NS(=O)(=O)c1ccccc1`: the TGI with KM12 colon, with CCRF-CEM leukemia, in the assay on SW-620 colon, in the assay with IGROV1 ovarian, with ACHN renal and in the assay with CAKI-1 renal was over 100 µM throughout. Moreover, in the assay with TK-10 renal, the TGI is over 100 µM.

For the molecule `CCOC(=O)C(C(=O)OCC)=c1sc(=C(C(=O)OCC)C(=O)OCC)s1`, the TGI with KM12 colon, with CCRF-CEM leukemia, with SW-620 colon, with IGROV1 ovarian, in the assay with ACHN renal and in the assay on CAKI-1 renal was over 100 µM throughout. This molecule also registered a TGI in the assay with TK-10 renal of over 100 µM.

For the molecule `C[CH2][Sn]([CH2]C)([O]C(=O)c1ccc(F)cc1)[O][Sn]([CH2]C)([CH2]C)[O]C(=O)c1ccc(F)cc1`, the GI50 with KM12 colon is over 100 µM; in the assay with CCRF-CEM leukemia, 10.7 µM; in the assay with SW-620 colon, 22.8 µM; in the assay on IGROV1 ovarian it was over 100 µM; with ACHN renal it was 79.8 µM; with CAKI-1 renal it was 12.2 µM. In addition, in the assay on TK-10 renal, the GI50 is 23.5 µM. Besides, the TGI with KM12 colon was over 100 µM; in the assay with CCRF-CEM leukemia it was 57.6 µM; in the assay on SW-620 colon, 45.5 µM; in the assay on IGROV1 ovarian it was over 100 µM; with ACHN renal it was over 100 µM; in the assay on CAKI-1 renal it was 24.9 µM. In the assay with TK-10 renal, this molecule came in with a TGI of 62.3 µM.

With `O=NN(CCCl)C(=O)N[C@H]1CCCC[C@@H]1Cl`, the TGI is over 100 µM with KM12 colon; 43.7 µM in the assay on CCRF-CEM leukemia; over 100 µM in the assay with SW-620 colon; over 100 µM in the assay with IGROV1 ovarian; over 100 µM in the assay with ACHN renal; over 100 µM in the assay with CAKI-1 renal. For the same molecule, the TGI in the assay on TK-10 renal is over 100 µM.

For `COC(C)(C)[C@H](O)C(O)CC(C)[C@@H]1CCC23CC12CCC1[C@@]2(C)CCC(OC(C)=O)C(C)(C)C2CC(OC2OC(COC(C)=O)C(O)C(O)C2O)[C@]13C` (stereo not given in full), the GI50 with KM12 colon is 4.23 µM; in the assay with CCRF-CEM leukemia it was 4.08 µM; with SW-620 colon, 4.67 µM; in the assay with IGROV1 ovarian, 3.59 µM; in the assay with ACHN renal, 6.08 µM; with CAKI-1 renal, 8.27 µM. The GI50 in the assay with TK-10 renal is 10.7 µM. Further, the TGI with KM12 colon is 7.55 µM and 14.1 µM; with CCRF-CEM leukemia, 9.67 µM and 17.3 µM; in the assay with SW-620 colon it was 13.7 µM and 15.3 µM; in the assay on IGROV1 ovarian it was 8.11 µM and 15 µM; in the assay on ACHN renal, 11.4 µM and 20 µM; in the assay on CAKI-1 renal it was 10.2 µM and 20.2 µM. The TGI with TK-10 renal is 14.9 µM and 23.4 µM.

Consider `Cn1nc2ccccc2cc1=O`, for which the TGI in the assay on KM12 colon, with CCRF-CEM leukemia, with SW-620 colon, in the assay with IGROV1 ovarian, in the assay on ACHN renal and in the assay on CAKI-1 renal was over 100 µM in each case. Besides, the TGI in the assay with TK-10 renal is over 100 µM.

Take `CCCCCCCCCCCCC(CCCCCCCCCCCC)OP(=O)(O)O`: the TGI with KM12 colon, with CCRF-CEM leukemia, in the assay with SW-620 colon, in the assay on IGROV1 ovarian, in the assay with ACHN renal and with CAKI-1 renal was over 100 µM in each case. This molecule had a TGI in the assay with TK-10 renal of over 100 µM.

For `Cc1ccc(NC(=O)CC2C(=O)Nc3ccccc3S2=O)c(C)c1` (stereo not given), the TGI with KM12 colon was over 100 µM; in the assay with CCRF-CEM leukemia, 67 µM; in the assay with SW-620 colon, 67.4 µM; in the assay on IGROV1 ovarian, 42.1 µM; with ACHN renal, 72.9 µM; in the assay on CAKI-1 renal, over 48.4 µM. In addition, in the assay with TK-10 renal, the TGI was 56.5 µM.

As to `Cn1sc2ccccc2c1=S`, the TGI with KM12 colon came out at 25.3 µM; in the assay with CCRF-CEM leukemia, 14.8 µM; with SW-620 colon, 5.2 µM; in the assay with IGROV1 ovarian it was 31.7 µM; with ACHN renal, 26.7 µM; in the assay with CAKI-1 renal it was 16.9 µM. In the assay with TK-10 renal, the TGI came out at 44.8 µM.

Turning to `FC(F)(F)c1cccc(C2SCc3nc4ccccc4n32)c1` (stereo not given), the TGI in the assay on KM12 colon, in the assay on CCRF-CEM leukemia, in the assay with SW-620 colon, in the assay with IGROV1 ovarian, in the assay on ACHN renal and in the assay with CAKI-1 renal was over 100 µM throughout. In the assay with TK-10 renal, this molecule displayed a TGI of over 100 µM.

Take `O=C(O)[C@@H](NS(=O)(=O)c1ccc([N+](=O)[O-])cc1)c1ccccc1`: the TGI in the assay with KM12 colon, in the assay with CCRF-CEM leukemia, in the assay with SW-620 colon, in the assay on IGROV1 ovarian, with ACHN renal and in the assay on CAKI-1 renal was over 100 µM each time. This molecule registered a TGI in the assay on TK-10 renal of over 100 µM.

As to `CCOC(=O)NC1CC2CCC1(OC)C=C2C` (stereo not given), the TGI with KM12 colon, with CCRF-CEM leukemia, with SW-620 colon, in the assay on IGROV1 ovarian, with ACHN renal and in the assay with CAKI-1 renal was over 100 µM in each case. For the same molecule, the TGI in the assay on TK-10 renal was over 100 µM.

In the case of `FC(F)(F)c1nc(-c2ccccc2)oc1Sc1oc(-c2ccccc2)nc1C(F)(F)F`, the TGI with KM12 colon is over 100 µM; with CCRF-CEM leukemia, over 100 µM; with SW-620 colon, over 100 µM; with IGROV1 ovarian, over 100 µM; in the assay with ACHN renal it was over 100 µM; in the assay with CAKI-1 renal, 65.7 µM. The same molecule had a TGI in the assay with TK-10 renal of over 100 µM.

Consider `CCCCCCCCCCCCCCCCCC[N+](C)(C)Cc1ccc(C[N+](C)(C)CCCCCCCCCCCCCCCCCC)cc1`, for which the TGI is 39.4 µM in the assay with KM12 colon; 44.1 µM with CCRF-CEM leukemia; over 100 µM in the assay on SW-620 colon; over 100 µM with IGROV1 ovarian; 30.3 µM in the assay with ACHN renal; 47.7 µM in the assay with CAKI-1 renal. This molecule also yielded a TGI in the assay with TK-10 renal of 28.6 µM.

For `C/C=C/C1=CN2C(=O)c3cc(OC4OC(C)C(NC)C(C)(O)C4O)c(C)c(O)c3N=C[C@@H]2C1` (stereo not given in full), the GI50 in the assay on CCRF-CEM leukemia was 0.0639 µM and < 0.01 µM; with SW-620 colon, 0.0951 µM and < 0.01 µM; with ACHN renal, 0.071 µM and < 0.01 µM; in the assay with CAKI-1 renal, 0.0279 µM and < 0.01 µM; with TK-10 renal, 0.326 µM. The TGI in the assay on CCRF-CEM leukemia worked out at 41.5 µM; in the assay on SW-620 colon, 10.2 µM.

`C=C[C@H]1C=Cc2c(OC)cccc2[C@@H]1COP1(=S)NC(C)C(c2ccccc2)O1` (stereo not given in full): the TGI in the assay on KM12 colon, in the assay on CCRF-CEM leukemia, in the assay on SW-620 colon, in the assay on IGROV1 ovarian and in the assay on TK-10 renal was over 100 µM throughout.

Consider `Cc1ccccc1NC(=O)c1ccc([N+](=O)[O-])cc1`, for which the TGI in the assay with KM12 colon, in the assay with CCRF-CEM leukemia, with SW-620 colon, in the assay with IGROV1 ovarian, with ACHN renal and with CAKI-1 renal was over 100 µM throughout. Moreover, the TGI in the assay on TK-10 renal is over 100 µM.

Take `c1ccc2c(c1)[nH]c1c2ncc2[nH]c3ccccc3c21`: the TGI is 10.3 µM in the assay with KM12 colon; 9.45 µM with CCRF-CEM leukemia; 10.3 µM with SW-620 colon; 22.5 µM in the assay with IGROV1 ovarian; 16.3 µM with ACHN renal; 13.7 µM in the assay on CAKI-1 renal. Also, in the assay with TK-10 renal, the TGI is 20.1 µM.

On to `Cc1c(CC/C(=N\Nc2ccc([N+](=O)[O-])cc2[N+](=O)[O-])c2ccccc2)c2ccccc2n1C`, for which the TGI in the assay with KM12 colon is over 100 µM; in the assay on CCRF-CEM leukemia, over 66.6 µM; in the assay with SW-620 colon it was over 100 µM; in the assay on IGROV1 ovarian, over 100 µM; in the assay with ACHN renal, over 100 µM; in the assay on CAKI-1 renal, over 100 µM. In the assay on TK-10 renal, this molecule displayed a TGI of over 100 µM.

On to `c1ccc2c(CNCCCCCCCCCCCCNCc3cccc4ccccc34)cccc2c1`, for which the TGI in the assay with KM12 colon worked out at 2.99 µM; with CCRF-CEM leukemia, 3.2 µM; in the assay on SW-620 colon it was 3.2 µM; with IGROV1 ovarian, 3.39 µM; with ACHN renal, 3.7 µM; with CAKI-1 renal it was 4.27 µM. Moreover, in the assay with TK-10 renal, the TGI amounted to 4.74 µM.

Regarding `COC1CC(OC)C(O)C(CO)O1` (stereo not given), the TGI in the assay on KM12 colon, with CCRF-CEM leukemia, with SW-620 colon, with IGROV1 ovarian, in the assay on ACHN renal and in the assay with TK-10 renal was over 100 µM each time.

Take `COC(=O)Cc1cc(=O)n2c([nH]c3ccccc32)c1C#N`: the TGI in the assay on KM12 colon, with SW-620 colon, in the assay with IGROV1 ovarian, in the assay with ACHN renal, in the assay on CAKI-1 renal and in the assay with TK-10 renal was over 100 µM each time.

Turning to `Nc1nc(=Nc2ccccc2)ss1`, the TGI in the assay with KM12 colon, in the assay on SW-620 colon, in the assay with IGROV1 ovarian, in the assay on ACHN renal, in the assay on CAKI-1 renal and in the assay with TK-10 renal was over 100 µM throughout.
